# Measured values as given in patent US20220050096A1, “ANALYTE-SENSITIVE PROBES AND CONTACT LENS FOR DIAGNOSIS OF OCULAR PATHOLOGIES” (University Of Maryland, Baltimore, priority 2020, published 2022).
# Assay: Sodium-dependent intensity decays of SG in 20 mM MOPS buffer, 8 mM KCl
# Format: physicochemical
# Design: key to α1 / α2 / α3 / f1 / f2 / f3: fractional amplitudes (α) and intensity fractions (f); Σαi=1.0, Σfi=1.0
# Method: Fluorescence Spectroscopic Measurements. Fluorescence intensities and intensity decays were measured using a Varian™ Eclipse 4 spectrofluorometer and a FluoTime300 instrument from PicoQuant™ (Berlin, Germany) and analyzed with the EasyTau™ software. The excitation source was a 473 nm laser diode with a repetition rate of 40 MHZ and a pulse width less than 100 ps. In other embodiments, the excitation source for SG-PL was at 495 nm from a Solea™ supercontinuum laser (PicoQuant™, Germany) and a 375 nm laser diode (PDL 375, PicoQuant™), a repetition rate of 40 MHz, and a pulse width less than 100 ps. Some intensity and lifetime measurements for SG-PL (as indicated) were performed using Alba V confocal fluorescence lifetime microscopy, FLIM (ISS, Urbana, Ill.), with excitation source of a 473 nm laser diode with a repetition rate of 40 MHz and a pulse width near 250 ps.
# Intensity decays were measured at the emission maximum with the band of 10 to 20 nm, analyzed in terms of the multi-exponential model:
# I(t)=Σαi exp(−t/ti) (equation 1)
# where ti are the individual decay times and αi the initial time-zero amplitudes. The mean decay time can be represented in two ways. The average lifetime is given by:
# where Σαi=1.0 and Σfi=1.0. The term fi=αi τi is proportional to the fractional contribution of each component to the total intensity decay. The term τi/Σαi τi is the fractional contribution to the steady state emission. Here, we use the amplitude-weighted lifetime given by
# which is appropriate when the emission is from a single fluorophore with a changing quantum yield. For a single exponential decay, the lifetime is given by τ=1.0/(knr+Γ) and the quantum yield is given by Q=Γ/(knr+Γ) where knr is the sum of all non-radiative decay rates and Γ is the radiative decay rate. The value of Γ is determined by the molecular extinction coefficient that remains constant under most conditions. For a single type of fluorophore with a constant value of Γ the normalized αi values represent the molecular fraction of each decay time component. The value of αi and τi were determined by non-linear least squares fitting using PicoQuant™ software.
# Three decay time components were required for the intensity decays. Fluorescence anisotropy decays were determined by individual measurements of the polarized intensity decays with corrections for the G-factor. Resolution of multi-exponential decays is not necessary. The average lifetime can be used as a single measurement. […]
# [1] = NaCl 0 mM, 20 mM MOPS buffer 8 mM KCl
# [2] = NaCl 5 mM, 20 mM MOPS buffer 8 mM KCl
# [3] = NaCl 10 mM, 20 mM MOPS buffer 8 mM KCl
# [4] = NaCl 20 mM, 20 mM MOPS buffer 8 mM KCl
# [5] = NaCl 30 mM, 20 mM MOPS buffer 8 mM KCl
# [6] = NaCl 50 mM, 20 mM MOPS buffer 8 mM KCl
# [7] = NaCl 90 mM, 20 mM MOPS buffer 8 mM KCl
# [8] = NaCl 150 mM, 20 mM MOPS buffer 8 mM KCl
# [9] = NaCl 210 mM, 20 mM MOPS buffer 8 mM KCl
smiles,measurement,setting,value
COc1cc(N2CCOCCOCCN(c3cc(OC)c(NC(=O)c4ccc(-c5c6cc(Cl)c(=O)cc-6oc6cc([O-])c(Cl)cc56)c(C(=O)[O-])c4)cc3OC)CCOCC2)c(OC)cc1NC(=O)c1ccc(-c2c3cc(Cl)c(=O)cc-3oc3cc([O-])c(Cl)cc23)c(C(=O)[O-])c1.C[N+](C)(C)C.C[N+](C)(C)C.C[N+](C)(C)C.C[N+](C)(C)C [SG],f1,"NaCl 0 mM, MOPS buffer",0.272
same,f2,"NaCl 0 mM, MOPS buffer",0.174
same,f3,"NaCl 0 mM, MOPS buffer",0.554
same,α1,"NaCl 0 mM, MOPS buffer",0.703
same,α2,"NaCl 0 mM, MOPS buffer",0.155
same,α3,"NaCl 0 mM, MOPS buffer",0.142
same,τ1,"NaCl 0 mM, MOPS buffer",0.36 ns
same,τ2,"NaCl 0 mM, MOPS buffer",1.03 ns
same,τ3,"NaCl 0 mM, MOPS buffer",3.59 ns
same,τf,"NaCl 0 mM, MOPS buffer",2.27 ns
same,τα,"NaCl 0 mM, MOPS buffer",0.92 ns
same,f1,[1],0.272
same,f2,[1],0.174
same,f3,[1],0.554
same,α1,[1],0.703
same,α2,[1],0.155
same,α3,[1],0.142
same,τ1,[1],0.36 ns
same,τ2,[1],1.03 ns
same,τ3,[1],3.59 ns
same,τf,[1],2.27 ns
same,τα,[1],0.92 ns
same,f1,"NaCl 5 mM, MOPS buffer",0.111
same,f2,"NaCl 5 mM, MOPS buffer",0.223
same,f3,"NaCl 5 mM, MOPS buffer",0.666
same,α1,"NaCl 5 mM, MOPS buffer",0.439
same,α2,"NaCl 5 mM, MOPS buffer",0.244
same,α3,"NaCl 5 mM, MOPS buffer",0.317
same,τ1,"NaCl 5 mM, MOPS buffer",0.39 ns
same,τ2,"NaCl 5 mM, MOPS buffer",1.44 ns
same,τ3,"NaCl 5 mM, MOPS buffer",3.28 ns
same,τf,"NaCl 5 mM, MOPS buffer",2.55 ns
same,τα,"NaCl 5 mM, MOPS buffer",1.57 ns
same,f1,[2],0.111
same,f2,[2],0.223
same,f3,[2],0.666
same,α1,[2],0.439
same,α2,[2],0.244
same,α3,[2],0.317
same,τ1,[2],0.39 ns
same,τ2,[2],1.44 ns
same,τ3,[2],3.28 ns
same,τf,[2],2.55 ns
same,τα,[2],1.57 ns
same,f1,"NaCl 10 mM, MOPS buffer",0.078
same,f2,"NaCl 10 mM, MOPS buffer",0.224
same,f3,"NaCl 10 mM, MOPS buffer",0.699
same,α1,"NaCl 10 mM, MOPS buffer",0.341
same,α2,"NaCl 10 mM, MOPS buffer",0.276
same,α3,"NaCl 10 mM, MOPS buffer",0.383
same,τ1,"NaCl 10 mM, MOPS buffer",0.40 ns
same,τ2,"NaCl 10 mM, MOPS buffer",1.43 ns
same,τ3,"NaCl 10 mM, MOPS buffer",3.22 ns
same,τf,"NaCl 10 mM, MOPS buffer",2.60 ns
same,τα,"NaCl 10 mM, MOPS buffer",1.77 ns
same,f1,[3],0.078
same,f2,[3],0.224
same,f3,[3],0.699
same,α1,[3],0.341
same,α2,[3],0.276
same,α3,[3],0.383
same,τ1,[3],0.40 ns
same,τ2,[3],1.43 ns
same,τ3,[3],3.22 ns
same,τf,[3],2.60 ns
same,τα,[3],1.77 ns
same,f1,"NaCl 20 mM, MOPS buffer",0.094
same,f2,"NaCl 20 mM, MOPS buffer",0.355
same,f3,"NaCl 20 mM, MOPS buffer",0.551
same,α1,"NaCl 20 mM, MOPS buffer",0.324
same,α2,"NaCl 20 mM, MOPS buffer",0.353
same,α3,"NaCl 20 mM, MOPS buffer",0.323
same,τ1,"NaCl 20 mM, MOPS buffer",0.57 ns
same,τ2,"NaCl 20 mM, MOPS buffer",2.00 ns
same,τ3,"NaCl 20 mM, MOPS buffer",3.39 ns
same,τf,"NaCl 20 mM, MOPS buffer",2.63 ns
same,τα,"NaCl 20 mM, MOPS buffer",1.99 ns
same,f1,[4],0.094
same,f2,[4],0.355
same,f3,[4],0.551
same,α1,[4],0.324
same,α2,[4],0.353
same,α3,[4],0.323
same,τ1,[4],0.57 ns
same,τ2,[4],2.00 ns
same,τ3,[4],3.39 ns
same,τf,[4],2.63 ns
same,τα,[4],1.99 ns
same,f1,"NaCl 30 mM, MOPS buffer",0.068
same,f2,"NaCl 30 mM, MOPS buffer",0.295
same,f3,"NaCl 30 mM, MOPS buffer",0.638
same,α1,"NaCl 30 mM, MOPS buffer",0.255
same,α2,"NaCl 30 mM, MOPS buffer",0.349
same,α3,"NaCl 30 mM, MOPS buffer",0.396
same,τ1,"NaCl 30 mM, MOPS buffer",0.54 ns
same,τ2,"NaCl 30 mM, MOPS buffer",1.72 ns
same,τ3,"NaCl 30 mM, MOPS buffer",3.27 ns
same,τf,"NaCl 30 mM, MOPS buffer",2.63 ns
same,τα,"NaCl 30 mM, MOPS buffer",2.03 ns
same,f1,[5],0.068
same,f2,[5],0.295
same,f3,[5],0.638
same,α1,[5],0.255
same,α2,[5],0.349
same,α3,[5],0.396
same,τ1,[5],0.54 ns
same,τ2,[5],1.72 ns
same,τ3,[5],3.27 ns
same,τf,[5],2.63 ns
same,τα,[5],2.03 ns
same,f1,"NaCl 50 mM, MOPS buffer",0.081
same,f2,"NaCl 50 mM, MOPS buffer",0.349
same,f3,"NaCl 50 mM, MOPS buffer",0.570
same,α1,"NaCl 50 mM, MOPS buffer",0.259
same,α2,"NaCl 50 mM, MOPS buffer",0.380
same,α3,"NaCl 50 mM, MOPS buffer",0.361
same,τ1,"NaCl 50 mM, MOPS buffer",0.66 ns
same,τ2,"NaCl 50 mM, MOPS buffer",1.95 ns
same,τ3,"NaCl 50 mM, MOPS buffer",3.35 ns
same,τf,"NaCl 50 mM, MOPS buffer",2.64 ns
same,τα,"NaCl 50 mM, MOPS buffer",2.12 ns
same,f1,[6],0.081
same,f2,[6],0.349
same,f3,[6],0.570
same,α1,[6],0.259
same,α2,[6],0.380
same,α3,[6],0.361
same,τ1,[6],0.66 ns
same,τ2,[6],1.95 ns
same,τ3,[6],3.35 ns
same,τf,[6],2.64 ns
same,τα,[6],2.12 ns
same,f1,"NaCl 90 mM, MOPS buffer",0.074
same,f2,"NaCl 90 mM, MOPS buffer",0.380
same,f3,"NaCl 90 mM, MOPS buffer",0.545
same,α1,"NaCl 90 mM, MOPS buffer",0.242
same,α2,"NaCl 90 mM, MOPS buffer",0.416
same,α3,"NaCl 90 mM, MOPS buffer",0.342
same,τ1,"NaCl 90 mM, MOPS buffer",0.64 ns
same,τ2,"NaCl 90 mM, MOPS buffer",1.93 ns
same,τ3,"NaCl 90 mM, MOPS buffer",3.36 ns
same,τf,"NaCl 90 mM, MOPS buffer",2.61 ns
same,τα,"NaCl 90 mM, MOPS buffer",2.11 ns
same,f1,[7],0.074
same,f2,[7],0.380
same,f3,[7],0.545
same,α1,[7],0.242
same,α2,[7],0.416
same,α3,[7],0.342
same,τ1,[7],0.64 ns
same,τ2,[7],1.93 ns
same,τ3,[7],3.36 ns
same,τf,[7],2.61 ns
same,τα,[7],2.11 ns
same,f1,"NaCl 150 mM, MOPS buffer",0.116
same,f2,"NaCl 150 mM, MOPS buffer",0.699
same,f3,"NaCl 150 mM, MOPS buffer",0.185
same,α1,"NaCl 150 mM, MOPS buffer",0.305
same,α2,"NaCl 150 mM, MOPS buffer",0.605
same,α3,"NaCl 150 mM, MOPS buffer",0.091
same,τ1,"NaCl 150 mM, MOPS buffer",0.81 ns
same,τ2,"NaCl 150 mM, MOPS buffer",2.48 ns
same,τ3,"NaCl 150 mM, MOPS buffer",4.38 ns
same,τf,"NaCl 150 mM, MOPS buffer",2.64 ns
same,τα,"NaCl 150 mM, MOPS buffer",2.15 ns
same,f1,[8],0.116
same,f2,[8],0.699
same,f3,[8],0.185
same,α1,[8],0.305
same,α2,[8],0.605
same,α3,[8],0.091
same,τ1,[8],0.81 ns
same,τ2,[8],2.48 ns
same,τ3,[8],4.38 ns
same,τf,[8],2.64 ns
same,τα,[8],2.15 ns
same,f1,"NaCl 210 mM, MOPS buffer",0.074
same,f2,"NaCl 210 mM, MOPS buffer",0.377
same,f3,"NaCl 210 mM, MOPS buffer",0.549
same,α1,"NaCl 210 mM, MOPS buffer",0.224
same,α2,"NaCl 210 mM, MOPS buffer",0.424
same,α3,"NaCl 210 mM, MOPS buffer",0.352
same,τ1,"NaCl 210 mM, MOPS buffer",0.70 ns
same,τ2,"NaCl 210 mM, MOPS buffer",1.88 ns
same,τ3,"NaCl 210 mM, MOPS buffer",3.29 ns
same,τf,"NaCl 210 mM, MOPS buffer",2.57 ns
same,τα,"NaCl 210 mM, MOPS buffer",2.12 ns
same,f1,[9],0.074
same,f2,[9],0.377
same,f3,[9],0.549
same,α1,[9],0.224
same,α2,[9],0.424
same,α3,[9],0.352
same,τ1,[9],0.70 ns
same,τ2,[9],1.88 ns
same,τ3,[9],3.29 ns
same,τf,[9],2.57 ns
same,τα,[9],2.12 ns
